# What was measured:
# Set-up in all cases: MIC Alone: unit not given beside the values
# Conditions in all cases: antimycotic agent alone
# Blastomyces dermatitidis = tested on: Blastomyces dermatitidis
# C. albicans = tested on: C. albicans
# Cryptococcus = tested on: Cryptococcus
SMILES,MLC Alone (Blastomyces dermatitidis),MIC Alone (C. albicans),MLC Alone (Cryptococcus),MIC Alone (Blastomyces dermatitidis),MIC Alone (Cryptococcus),MLC Alone (C. albicans)
"Clc1ccc(COC(Cn2ccnc2)c2ccc(Cl)cc2Cl)c(Cl)c1 (stereo not drawn) [MON, miconazole]",5,1.25,5,–,–,–
"OC(Cn1cncn1)(Cn1cncn1)c1ccc(F)cc1F [FLU, fluconazole]",–,2.5,–,10,10,–
"C[C@@H]1[C@H](O)[C@@H](C)/C=C/C=C/C=C/C=C/C=C/C=C/C=C/[C@H](O[C@@H]2O[C@H](C)[C@@H](O)[C@H](N)[C@@H]2O)C[C@@H]2O[C@](O)(C[C@@H](O)C[C@@H](O)[C@H](O)CC[C@@H](O)C[C@@H](O)CC(=O)O[C@H]1C)C[C@H](O)[C@H]2C(=O)O [AMB, amphotericin B]",–,–,–,0.29,0.29,> 4.62

# Reference: patent US5436253A, “Pyridonecarboxylic acid derivatives and mycotic infections” (Daiichi Pharmaceutical Co., Ltd., priority 1993, dated 1995)
